The values below come from patent publication US4874698A, “Process for producing tryptophan” (Kyowa Hakko Kogyo Co., Ltd., priority 1983, dated 1989).

Test [1] concerns the target anthranilic acid synthetase encoded by pTrp 13-2 (Corynebacterium glutamicum, UniProt P06557). As to the kind of experiment: Inhibition by tryptophan of the anthranilic acid synthetase encoded by plasmid pTrp 13-2. It is filed as biochemical. As to the method:
(§1) The thus obtained transformants have the plasmid harboring a gene coding for the anthranilic acid synthetase insensitie to tryptophan. The anthranilic acid synthetase encoded by one of the plasmids, pTrp 13-2 was inhibited 50% with 0.25 mM tryptophan, which was 40-fold higher than the concentration of tryptophan (0.006 mM) needed to inhibit 50% the anthranilic acid synthetase encoded by pTrp 9-1.

Test [2] has as its target T1, anthranilic acid synthetase encoded by pTrp 9-1 (Corynebacterium glutamicum, UniProt P06557).
T1 construct: made in house; host or cells: Corynebacterium glutamicum LA 105
Description: Inhibition by tryptophan of the anthranilic acid synthetase encoded by plasmid pTrp 9-1. It is filed as biochemical, Corynebacterium glutamicum ATCC 13032. The protocol: as §1

Sequence of anthranilic acid synthetase encoded by pTrp 13-2 (P06557 whole entry): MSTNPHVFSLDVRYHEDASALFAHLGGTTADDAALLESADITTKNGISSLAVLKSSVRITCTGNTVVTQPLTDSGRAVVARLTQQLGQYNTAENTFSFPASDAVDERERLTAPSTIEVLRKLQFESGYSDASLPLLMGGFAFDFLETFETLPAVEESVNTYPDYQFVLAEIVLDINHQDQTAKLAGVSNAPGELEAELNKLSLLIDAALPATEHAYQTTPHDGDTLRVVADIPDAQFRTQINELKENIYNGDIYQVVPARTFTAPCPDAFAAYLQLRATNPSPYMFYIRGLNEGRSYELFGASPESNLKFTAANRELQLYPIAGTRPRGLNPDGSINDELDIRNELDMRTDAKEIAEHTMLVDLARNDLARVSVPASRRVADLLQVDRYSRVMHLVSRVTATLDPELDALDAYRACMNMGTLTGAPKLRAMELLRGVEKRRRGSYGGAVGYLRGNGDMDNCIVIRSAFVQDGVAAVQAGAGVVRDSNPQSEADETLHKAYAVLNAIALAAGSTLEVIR
Sequence of anthranilic acid synthetase encoded by pTrp 13-2 (P06558 whole entry, further chain): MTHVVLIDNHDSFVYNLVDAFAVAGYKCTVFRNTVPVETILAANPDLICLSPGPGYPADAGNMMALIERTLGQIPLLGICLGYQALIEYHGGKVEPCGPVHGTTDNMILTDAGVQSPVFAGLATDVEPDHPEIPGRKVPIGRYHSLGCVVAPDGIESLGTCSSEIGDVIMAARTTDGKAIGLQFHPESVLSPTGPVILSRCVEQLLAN
T1 sequence (P06557 whole entry): as the sequence (P06557 whole entry) above
T1 sequence (P06558 whole entry, further chain): as the sequence (P06558 whole entry, further chain) above

Turning to `N[C@@H](Cc1c[nH]c2ccccc12)C(=O)O` [tryptophan], the “fold higher 50% inhibitory tryptophan concentration, pTrp 13-2 enzyme versus pTrp 9-1 enzyme” value in test [1] (0.25 mM versus 0.006 mM) amounted to 40 fold. Besides, the IC50 amounted to 250 µM in test [1] (read-out: concentration of tryptophan inhibiting the anthranilic acid synthetase 50%, enzyme encoded by tryptophan-analog resistant plasmid pTrp 13-2) and 6 µM in test [2].
